Data on one molecule can be found in US20170165283A1, “USE OF BETA-NICOTINAMIDE MONONUCLEOTIDE IN PREPARATION OF HEALTH-CARE PRODUCTS FOR PREVENTING AND TREATING ARTERIOSCLEROSIS AND CARDIO-CEREBROVASCULAR DISEASES, AND HEALTH-CARE PRODUCT CONTAINING THE SAME” (BONTAC BIO-ENGINEERING (SHENZHEN) CO., LTD, priority 2015, published 2017).

Each structure is given as a SMILES string.

For assay [1], the system named is guinea pigs fed on high-fat diet (arteriosclerosis, lesion of the aorta). In words: Aortic lesion area (Sudan IV staining) in guinea pigs fed on high-fat diet. The class given is in vivo. Conditions: end of week 7, x±s. As to the method: 70 SPF healthy guinea pigs (female:male 1:1) having a body weight of 250-300 g, were assigned to 7 groups at random, each group having 10 animals. The groups include (1) a normal control group, fed on basal diet, and allowed to free access to water during experiment;
(2) a high fat control group, fed on high-fat diet, and allowed to free access to water during experiment;
(3) a high fat prevention group, fed on high-fat diet, dosed with 50 mg NMN/kg body weight every day by gavage, and allowed to free access to water during experiment;
(4) a low-dose NMN group, fed on high-fat diet, dosed with 0.5 mg NMN/kg body weight every day by gavage from week 6, and allowed to free access to water during experiment;
(5) a medium-dose NMN group, fed on high-fat diet, dosed with 50 mg NMN/kg body weight every day by gavage from week 6, and allowed to free access to water during experiment;
(6) a high-dose NMN group, fed on high-fat diet, dosed with 100 mg NMN/kg body weight every day by gavage from week 6, and allowed to free access to water during experiment; and (7) a NMN+NR group, fed on high-fat diet, dosed with 50 mg NMN/kg body weight and 5 mg NR/kg body weight every day by gavage from week 6, and allowed to free access to water during experiment.
The formulation of the high-fat diet includes 75% basal diet, 5% cholesterol, and 20% lard oil.
At the end of week 7, all the experimental animals was fasted (allowed to access to water) for 12 hrs and then sacrificed. The aorta was isolated, dissected longitudinally along the midline of the anterior wall, and stained with Sudan IV. […] The lesion area pathologically measured and the total endangium area were quantified, and the degree of arteriosclerosis was expressed by percentages of the lesion area relative to the total endangium area of the aorta.
Statistical analysis: All the experimental data is analyzed by SPSS13.0 Statistics software. The measurement data is expressed as x±s, and t test is applied to check the statistical significance. Where P <0.05, there is statistical significance.

The test system of assay [2] is patients diagnosed as having cardio-cerebrovascular diseases resulting from arteriosclerosis. Put plainly: Clinical trial in patients with cardio-cerebrovascular diseases resulting from arteriosclerosis. The class given is in vivo, human. Conditions: Group A: oral NMN 10 mg/kg body weight every day; for Total effective rate: excluding the withdrawing patients. The procedure: 200 patients (male:female 1:1, aged 35-76 years and 55 years on average, and having a course of disease of the shortest 2 years, the longest 7 years, and 4.8 years on average) diagnosed as having cardio-cerebrovascular diseases resulting from arteriosclerosis were selected at random as subjects for clinical observation. The patients were assigned to a group A and a group B at random, each group having 100 patients.
Group A: The patients were orally administered with NMN at a dosage of 10 mg/kg body weight before or after meals every day, and the diet was controlled as desired.
Group B: The patients were orally administered with NMN at a dosage of 10 mg/kg body weight and with NR at a dosage of 2 mg/kg body weight before or after meals every day, and the diet was controlled as desired.
(1) Obvious effectiveness: The health is built up, the body is powerful, the blood lipid and blood pressure drop to normal levels, the palpitation, chest pain, chest tightness, headache, dizziness, decreased vision, decreased memory, insomnia and dreamful sleep, and other clinical symptoms are obvious alleviated.
(2) Effectiveness: The health is built up, the blood lipid and blood pressure drop slightly, the palpitation, chest pain, chest tightness, headache, dizziness, decreased vision, decreased memory, insomnia and dreamful sleep, and other clinical symptoms are alleviated to some extent.
(3) Ineffectiveness: There is no obvious improvement in the clinical symptoms.

With `NC(=O)c1ccc[n+]([C@@H]2O[C@H](COP(=O)([O-])O)[C@@H](O)[C@H]2O)c1` [NMN, β-nicotinamide mononucleotide], the “Rate of lesion area of aorta (%)” value in assay [1] (high fat prevention group: high-fat diet, 50 mg NMN/kg body weight every day by gavage, n=10) amounted to 4 ± 1%; in assay [1] (high-dose group: high-fat diet, 100 mg NMN/kg body weight every day by gavage from week 6), 12 ± 3%; in assay [1] (low-dose group: high-fat diet, 0.5 mg NMN/kg body weight every day by gavage from week 6), 59 ± 4%; in assay [1] (medium-dose group: high-fat diet, 50 mg NMN/kg body weight every day by gavage from week 6) it was 23 ± 2%. The “Time after administration at which patients with mild disease are cured” value in assay [2] is on record as 7 days. Besides, in assay [2] (after 1 month), the “Patients showing obvious effectiveness” value is given as 67 out of 100 patients. The same molecule gave a Patients showing effectiveness in assay [2] (after 1 month, 100 patients) of 28 patients. For the same molecule, the Patients showing ineffectiveness in assay [2] (after 1 month, 100 patients) was 4 patients. For the same molecule, the Total effective rate in assay [2] (after 1 month) is given as 96%; in assay [2] (after 1 month, listed as β-nicotinamide mononucleotide) it was “up to 96%”.
